Data reported in patent US12558329B2 (New York University, priority 2021, dated 2026).
“Also recorded” adds a separate entry of the source.

Tests used:
human cells = experiment: 18O2-GASSP labelling of human cells, untargeted polar metabolomics, with or without IOX1; assay type: cell-based; settings: A498 and SKNDZ cells, 3%, 1%, 0.2% 18O2, IOX1 24 hours
Experimental: To map the molecular fate of O2 in metabolic pathways in living cells, GASSP was used to carry out ^18O2 labelling in cell lines of different tissue origins at ^18O2 concentrations that represented physiological (3%), hypoxic (1%), and severely hypoxic (0.2%) oxygen tensions found in tissues and tumours^7. At the end of each run, polar metabolites were extracted and untargeted polar metabolomics using liquid chromatography-high resolution mass spectrometry (LC-MS) were carried out to identify metabolites labeled with ^18O.
A list of unique features identified by untargeted metabolomics that were >0.25% (natural abundance of ^18O is 0.2%) labelled by ^18O atoms in each cell line at each oxygen tension was generated. In addition, background signal was controlled by requiring that ^18O labeled peaks had to have a signal that was two-fold greater than naturally occurring isotopes found in non-labelled (^16O) metabolite cell extracts. To determine the proportion of unique ^18O labelled features that were due to dioxygenase activity, cells were treated with a pan-dioxygenase inhibitor (IOX1) at concentrations that inhibit iron-dependent dioxygenases, such as the HIF1α prolyl hydroxylases (FIGS. 5E-5F) and identified ^18O labelled polar metabolites. This list of ^18O metabolites was generated by identifying all features in the unlabelled samples, filtering these features against blank samples to remove background peaks, and calculating the fractional ^18O labelling with the assumption that a metabolite would have no more than three oxygen atoms labelled, followed by manual curation of labelled features (FIG. 1B and FIG. 5G). […] These ^18O-labelled features were termed the oxy-metabolome.
To determine the identities of the labeled metabolites, the list of ^18O labelled features was annotated to their corresponding unlabelled metabolites using retention time matching, tandem mass spectrometry (MS2) fragmentation patterns, and database searching.
(§1) All steps involved in setting up labelling with ^18O2 were performed at room temperature and inside a chemical fume hood. The procedure may vary depending on the type and number of tissue culture plates in the chamber and the amount of media in the plates. Users must test the system by using ^16O2:CO2:N2 or other unlabelled gases to optimize conditions for their needs and avoid consumption of costly labelled gases. Cells were treated with or without 5 μM MG132, 500 μM IOX1, 250 μM DFO, or 70 μM ascorbate, before placing tissue culture plates into the modular incubator chamber (MIC) containing a wireless oxygen sensor and a 15 cm dish of water to maintain humidity. Next, the clamps were closed to form an air-tight seal between the lid and platform of the MIC. […] N2 flushing was repeated for a total of three times, or until the sensor in the chamber stabilized at 0% O2 for 10 minutes.

MIAPACA2 cells = experiment: 18O2-GASSP labelling of MIAPACA2 cells treated with MG132, IOX1, DFO or ascorbate; assay type: cell-based, human
Experimental: As additional controls, MIAPACA2 cells were treated with an iron chelator (DFO, FIG. 5E-5F), a proteasome inhibitor (MG132) to induce proteotoxic stress, and physiological levels of ascorbate, an antioxidant, to determine the effects of ROS on ^18O-labelling. Labelling of ^18O γ-butyrobetaine was blocked by IOX1 and DFO, consistent with the fact that trimethyllysine hydroxylase (TMLH) is an iron-dependent dioxygenase (FIGS. 7A-7D). […] Total levels of ^18O labelled methionine sulfoxide increased upon MG132 treatment and decreased following ascorbate treatment (FIGS. 7I-7M)^10.
as §1
Next, the inlet valve was opened and the ^18O2:5% CO2:N2 gaseous mixture was flushed into the system at a rate of 2.5 L/min. Subsequently, the outlet valve was immediately opened to allow gas flow out of the chamber, and to release the pressure in the system. The chamber was injected with the ^18O2:5% CO2:N2 gaseous mixture for 1 minute before the inlet and outlet valves were closed simultaneously. The chamber was allowed to equilibrate for 5 minutes. This process was repeated seven times, or until the desired oxygen concentration was reached and was stable. For 3%, 1%, and 0.2% ^18O2 labelling studies, the chamber was infused with 5%:5%:90%, 1.5%:5%:93.5%, and 0.5%:5%:94.5% ^18O2:CO2:N2, respectively. The ^18O2-infused MIC was then placed in a 37° C., 5% CO2 tissue culture incubator for 24 hours. The oxygen concentration in the chamber was monitored regularly. Oxygen measurements after 20 hours was not feasible due to the battery life of the sensor. At the end of the experiment, the chamber was opened inside a chemical fume hood before metabolite extraction.
For metabolomics, briefly, cells were washed in 4° C. 0.9% saline and metabolites were extracted with 46% methanol:23% H2O:[…] chloroform that contained a labelled amino acid standard mix (MSK-A2-1.2, Cambridge Isotope Laboratories, Inc.). Enzymatic assay samples were extracted using 80% methanol: 20% H2O that contained labelled amino acid standards. Extracts were placed into 1.5 mL Eppendorf tubes, vortexed at 4° C. for 10 min and centrifuged at 4° C. for 10 min at 17,200×g in a microcentrifuge. The aqueous phase was transferred to vials for GC-MS or Eppendorf tubes for LC-MS. Polar samples were evaporated in a SpeedVac and samples were resolved by GC-MS or LC-MS. Lipid samples were dried using a stream of N2 (for ^18O labelling studies) or air. Metabolite and lipid extracts were submitted to the NYULMC Metabolomics Core Resource Laboratory.
For polar metabolomics, the LC column was a Millipore ZIC-pHILIC (2.1×150 […], 5 μm bead size) coupled to a Dionex UltiMate 3000 system. The column oven temperature was held at 25° C. The flow rate was 100 μL/min, and the injection volume was 1 μL. Buffer A was 10 mM ammonium carbonate in water, pH 9, and Buffer B was neat acetonitrile. The gradient profile was 80-20% B (0-30 min), 20-80% B (30-31 min), and 80-80% B (31-42 min). MS Analyses were carried out on a Thermo Q Exactive HF mass spectrometer using a heated electrospray ionization (HESI) source. […]

In the case of O=C(O)c1ccc(O)c2ncccc12 [IOX1], the “4-HMA 18O labeling” value (human cells) is reported as “decreased”, the “18O labelling of methionine” value (MIAPACA2 cells; 3%, 1%, 0.2% 18O2, 24 hours) is reported as “sensitive; also recorded: blocked” and the “18O labelling of γ-butyrobetaine” value (MIAPACA2 cells; 3%, 1%, 0.2% 18O2, 24 hours) is reported as “sensitive; also recorded: blocked”. The “18O labelling of 4-HMA” value (MIAPACA2 cells; MIAPACA2, 3%, 1%, 0.2% 18O2, 24 hours, 500 μM IOX1, 250 μM DFO) was “sensitive; also recorded: significantly attenuated” and the 4-HMA levels (MIAPACA2 cells; MIAPACA2, 18O2 labelling, 24 hours, 500 μM IOX1, 250 μM DFO, 70 μM ascorbate) was “significantly attenuated”.
